Values of other authors as cited in patent US11839654B2, “Combination therapy” (Eli Lilly and Company, priority 2018, dated 2023).

Assays:
JNPL3 tau mouse model = conditions: Yuzwa et al. 2012; cited from earlier work
Tg4510 tau mouse model = conditions: Graham et al. 2014; cited from earlier work

## CCN=C1N[C@@H]2[C@@H](O)[C@H](O)[C@@H](CO)O[C@@H]2S1 [Thiamet-G]
JNPL3 tau mouse model
  effect on motor neuron loss: slowing motor neuron loss
Tg4510 tau mouse model
  effect on tau pathology and dystrophic neurites: reduction in tau pathology and dystrophic neurites
